Common to all, as to assay: NCI tumour cell line growth inhibition, 48 h
The test system of assay [1] is CCRF-CEM leukemia.
Assay [2] relates to SF-268 CNS.
In assay [3] the test system is SK-OV-3 ovarian.
The test system of assay [4] is NCI-H23 lung.
Assay [5] concerns MOLT-4 leukemia.
For assay [6], the system named is A549 NSCLC.
In assay [7] the test system is T-47D breast.
Assay [8] deals with NCI-H522 lung.
Assay [9] relates to SK-MEL-5 melanoma.
Assay [10] has as its system SW-620 colon.
Assay [11] relates to KM12 colon.
Assay [12] deals with SNB-19 CNS.
Assay [13] concerns U251 CNS.
For assay [14], the system named is OVCAR-8 ovarian.

The structures appear in SMILES notation.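 96-well plates; 48 h exposure; 5 concentrations. Endpoints by linear interpolation between flanking doses. Not reached: highest tested concentration assigned. TGI denotes the concentration required for complete inhibition of growth.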

From PubChem BioAssay (NCI) come the findings set out here.

As for `CN1CCOC1(C)CO` (stereo not drawn), the TGI in assay [1], in assay [2], in assay [3], in assay [4], in assay [5] and in [6] was greater than 100 µM each time. For the same compound, the TGI in assay [7], in [8], in [9], in assay [10], in [11] and in assay [12] was greater than 100 µM in each case. Moreover, the TGI in assay [13] and in assay [14] was greater than 100 µM in each case.
With `COC(=O)C1=C(C)NC(C)=C(C(=O)OC)C1c1ccc(/[N+]([O-])=C/c2ccccc2)cc1`, the TGI was 48 µM in [1]; greater than 100 µM in assay [2]; greater than 100 µM in [3]; greater than 100 µM in [4]; 71.5 µM in assay [5]; greater than 100 µM in assay [6]. Moreover, the TGI was 40.6 µM in assay [7]; 27.9 µM in assay [8]; greater than 100 µM in assay [9]; 35.5 µM in [10]; greater than 100 µM in assay [11]; greater than 100 µM in assay [12]. The values for the TGI in [13] and in assay [14] were greater than 100 µM and 46.2 µM, respectively.
Regarding `C/C(=N\Nc1cc(CN2CCCC2)c(-c2ccc(Cl)cc2)nn1)C(=O)O`, the TGI in assay [1], in [2], in assay [3], in assay [4], in assay [5] and in assay [6] was greater than 100 µM each time. For the same compound, the TGI in assay [7], in assay [8], in [9], in assay [10], in assay [11] and in [12] was greater than 100 µM in each case. The TGI in assay [13] and in assay [14] was greater than 100 µM in each case.
For `CC(=O)c1csc2c1C(=O)c1scc(C(C)=O)c1C2=O`, the TGI came out at 1.82 µM in [1]; 3.44 µM in [2]; 4.64 µM in [3]; 2.92 µM in assay [4]; 1.13 µM in [5]; 4.19 µM in assay [6]. Also, the TGI stood at 1.2 µM in [7]; 1.75 µM in [8]; 2.77 µM in assay [9]; 3.73 µM in [10]; 3.53 µM in assay [11]; 3.32 µM in assay [12]. For the same compound, the TGI is 2.9 µM in assay [13] and 3.09 µM in [14].
As to `CSC1=C(SC)SC(=C2SC3=C(SC(=C4SCCS4)S3)S2)S1`, the TGI in [1], in assay [2], in [3], in [4], in [5] and in assay [6] was greater than 100 µM throughout. Moreover, the TGI in assay [7], in assay [8], in [9], in assay [10], in [11] and in assay [12] was greater than 100 µM in each case. The TGI in assay [13] and in assay [14] was greater than 100 µM throughout.
As to `Cc1ccc(S(=O)(=O)C2=Cc3ccc(C(F)(F)F)cc3C2(O)c2cccc(C(F)(F)F)c2)cc1` (stereo not drawn), the TGI in assay [1] was 8.17 µM; in assay [2], 8.65 µM; in [3], 28.2 µM; in assay [4] it was 6.26 µM; in assay [5] it was greater than 22.6 µM; in assay [6], 8.61 µM. Moreover, the TGI was found to be 11 µM in assay [7]; 3.84 µM in [8]; 3.35 µM in assay [9]; 3.85 µM in assay [10]; 4.53 µM in assay [11]; 16.8 µM in assay [12]. The TGI in assay [13] worked out at 3.6 µM; in assay [14] it was 4.44 µM.
Take `C=CCNC1=C2C[C@@H](C)C[C@@H](OC)[C@@H](OC(=O)CCCN)[C@H](C)/C=C(\C)[C@@H](OC(N)=O)[C@H](OC)/C=C\C=C(/C)C(=O)NC(=CC1=O)C2=O`: the TGI in assay [1] was found to be 28.9 µM; in assay [2], 30.7 µM; in assay [3], 28.7 µM; in assay [4], 29.6 µM; in [5], 40.2 µM; in assay [6] it was 32.8 µM. The TGI in assay [7] was greater than 67.2 µM; in [8], 26.4 µM; in assay [9] it was 33.7 µM; in [10] it was greater than 60 µM; in assay [11] it was 19.2 µM; in [12], 32.2 µM. In addition, the results for the TGI in assay [13] and in assay [14] were greater than 50.4 µM and 42.5 µM, respectively.
Take `COc1ccc2c(c1)CCc1c-2[nH]c2ccc(OC)cc12`: the TGI is 97.7 µM in assay [1]; greater than 100 µM in assay [2]; greater than 100 µM in assay [3]; greater than 100 µM in assay [4]; greater than 100 µM in assay [5]; greater than 100 µM in assay [6]. In addition, the TGI in assay [7], in assay [8], in [9], in assay [10], in assay [11] and in assay [12] was greater than 100 µM in each case. Besides, the TGI in [13] and in assay [14] was greater than 100 µM throughout.
As for `N#CC(NNC(=O)Cc1ccccc1)c1ccccc1O` (stereo not drawn), the TGI in assay [1] is greater than 54.9 µM; in [2] it was 98.7 µM; in [3], greater than 85.4 µM; in assay [4], 76.4 µM; in assay [5], greater than 100 µM; in assay [6], greater than 90.4 µM. The TGI in assay [7] was greater than 65.3 µM; in [8], greater than 41.1 µM; in [9] it was greater than 72.2 µM; in assay [10], greater than 100 µM; in assay [11], greater than 100 µM; in assay [12] it was greater than 80.8 µM. In addition, the TGI in [13] is greater than 92 µM; in assay [14] it was 99.2 µM.
As to `CCN(CC)/C(Cl)=C(Cl)\C(=C1\Nc2ccc(OC)cc21)[N+](=O)[O-]`, the TGI in [1] is 93.6 µM; in assay [2], greater than 100 µM; in assay [3], greater than 100 µM; in [4] it was greater than 100 µM; in [5], 85.2 µM; in assay [6], greater than 100 µM. In addition, the TGI in [7] was greater than 100 µM; in [8] it was 67.3 µM; in [9] it was greater than 100 µM; in assay [10] it was greater than 100 µM; in assay [11], greater than 100 µM; in assay [12] it was greater than 100 µM. Moreover, the TGI in assay [13] and in [14] was greater than 100 µM in each case.
As for `O=C(C(=O)N1CCc2ccccc21)c1c[nH]c2ccccc12`, the TGI in assay [1], in assay [2], in assay [3], in assay [4], in [5] and in assay [6] was greater than 10 µM each time. For the same compound, the TGI in assay [7], in assay [8], in [9], in assay [10], in [11] and in assay [12] was greater than 10 µM each time. Moreover, the TGI in assay [13] and in [14] was greater than 10 µM in each case.
As to `CCOC(=O)CC1c2ccc(O)cc2OC(=O)C1c1ccc([N+](=O)[O-])cc1` (stereo not drawn), the TGI in [1] is 62.1 µM; in assay [2], greater than 100 µM; in assay [3], 85.5 µM; in assay [4] it was 96.7 µM; in assay [5], 78.6 µM; in [6], greater than 100 µM. Also, the TGI in [7] was 60 µM; in assay [8], 66.5 µM; in [9], 29 µM; in [10] it was greater than 100 µM; in assay [11] it was 97.8 µM; in [12] it was greater than 100 µM. Moreover, the TGI in assay [13] is greater than 100 µM; in assay [14] it was 75.7 µM.
On to `Clc1ccc(Cl)c(Nc2ccnc(SCc3ccccc3)n2)c1`, for which the TGI in assay [1], in assay [2], in assay [3], in [4], in [5] and in [6] was greater than 100 µM throughout. The TGI in [7], in assay [8], in [9], in [10], in [11] and in [12] was greater than 100 µM throughout. Also, the TGI in [13] and in assay [14] was greater than 100 µM throughout.
Take `CC1=C(Br)C(Br)=C(C)S1=O`: the TGI in [1] is 6.66 µM; in [2], greater than 100 µM; in assay [3] it was 65.5 µM; in [4], greater than 100 µM; in [5], 33.4 µM; in assay [6], 79.8 µM. The TGI in assay [7] is greater than 100 µM; in assay [8] it was 23.8 µM; in assay [9], 22.1 µM; in assay [10], greater than 100 µM; in assay [11] it was 36.2 µM; in assay [12], 63.7 µM. In addition, the TGI was 26 µM in [13] and greater than 100 µM in assay [14].
Consider `CC(C)=CCS(=O)c1ccccc1NC1=CC(=O)CC(C)(C)C1` (stereo not drawn), for which the TGI in assay [1], in [2], in assay [3], in [4], in assay [5] and in assay [6] was greater than 100 µM each time. For the same compound, the TGI in assay [7], in assay [8], in [9], in assay [10], in [11] and in assay [12] was greater than 100 µM in each case. Moreover, the TGI in [13] is 2.42 µM; in assay [14], greater than 100 µM.
As to `Cc1cccc2c1[C@]13OC(C)[C@]4(C)CC5OC(=O)[C@@]1(C)[C@@H]5[C@]34C(=O)O2` (stereo partly drawn), the TGI in [1], in [2], in assay [3], in [4], in assay [5] and in [6] was greater than 100 µM throughout. For the same compound, the TGI in assay [7], in assay [8], in assay [9], in assay [10], in assay [11] and in assay [12] was greater than 100 µM each time. Besides, the TGI in assay [13] and in assay [14] was greater than 100 µM throughout.
For `COc1ccc2c3c1O[C@H]1C(O)CCC4(O)[C@@H](C2)NCC[C@]314` (stereo partly drawn), the TGI in assay [1], in [2], in assay [3], in [4], in [5] and in [6] was greater than 100 µM each time. The TGI in assay [7], in assay [8], in [9], in assay [10], in assay [11] and in assay [12] was greater than 100 µM each time. In addition, the TGI in [13] and in assay [14] was greater than 100 µM in each case.
`Cc1cc(C)cc(C(=N)c2ccccc2Cc2cccc3ccccc23)c1`: the TGI stood at 26.5 µM in assay [1]; 34.9 µM in assay [2]; 41.5 µM in [3]; 34.1 µM in assay [4]; 30.8 µM in assay [5]; 42.4 µM in [6]. Further, the TGI in assay [7] came to 46.3 µM; in assay [8], 24.4 µM; in [9], 31.9 µM; in assay [10], 31.8 µM; in assay [11], 24 µM; in assay [12], 43 µM. In addition, the results for the TGI in assay [13] and in [14] were greater than 100 µM and 34.1 µM, respectively.
For the compound `COc1cccc(CCn2c(N)c(-c3ccccc3)c3ccc([N+](=O)[O-])cc3c2=O)c1`, the TGI stood at 43 µM in assay [1]; 53.7 µM in [2]; 23.3 µM in assay [3]; 8.47 µM in assay [4]; 49.5 µM in assay [5]; 42 µM in assay [6]. Moreover, the TGI in assay [7] is 5.6 µM; in assay [8] it was 9.37 µM; in [9], 19.3 µM; in assay [10], greater than 85.6 µM; in [11], 16 µM; in assay [12] it was 41 µM. The results for the TGI in [13] and in assay [14] were 36.5 µM and 4.45 µM, respectively.
Consider `c1cc(-c2ncc(-c3ccc4c(c3)CCCO4)o2)ccn1`, for which the TGI in assay [1] was 29.3 µM; in assay [2], 86.3 µM; in [3] it was 93.5 µM; in [4], 52.2 µM; in assay [5], 17.3 µM; in assay [6], greater than 100 µM. Further, the TGI in assay [7] was 63.7 µM; in assay [8], 16.7 µM; in assay [9] it was 21.2 µM; in assay [12], greater than 100 µM; in assay [13], 66.5 µM; in assay [14], 94.9 µM.
